From PMC4686834, “Autocrine selection of a GLP-1R G-protein biased agonist with potent antidiabetic effects” (Nature Communications, 2015)
*1 amine or outer side, *2 acyl side, *3 side chain or, on linkers, in order; H or OH if unused. Where a SMILES comes first, the peptide text is derived from it. Bridges are numbered along the chain shown (N, C = ends). [ ]: non-standard residue; d: D form. The star is where a group is joined. Leu(3R-OH,Nα-propionyl) = CCC(=O)N[C@H](C(=O)*)[C@H](O)C(C)C; X1 = CC(C)[C@@H](O[*:3])[C@H](N[*:1])C(=O)[*:2]; NMeT = CN[C@H](C(=O)O)[C@@H](C)O; dPhLac = O=C(O)[C@H](O)Cc1ccccc1; NMeA = CN[C@@H](C)C(=O)O; NMeDha = C=C(NC)C(=O)O

Columns and labels:
[1] = target: T1, human GLP-1R (Homo sapiens, UniProt P43220); assay: Intracellular calcium mobilization (Gαq), FLIPR, CHO cells expressing the human GLP-1R; assay type: cell-based; details: 1 μM FR900359 in loading medium; CHO-GLP-1R expressing cells
T1 construct: expressed in transfected cells
Method: The stable CHO cell line (generated in-house using CHO-K1 cell line purchased from ATCC) expressing a functional human GLP-1R was cultured in F12 medium (Gibco) supplemented with 10% fetal bovine serum and 500 μg ml^−1 geneticin.

[2] = tested on: human GLP-1R; assay: Ligand bias, equiactive comparison with Ex4 as reference; assay type: cell-based

T1 sequence (P43220 24-463): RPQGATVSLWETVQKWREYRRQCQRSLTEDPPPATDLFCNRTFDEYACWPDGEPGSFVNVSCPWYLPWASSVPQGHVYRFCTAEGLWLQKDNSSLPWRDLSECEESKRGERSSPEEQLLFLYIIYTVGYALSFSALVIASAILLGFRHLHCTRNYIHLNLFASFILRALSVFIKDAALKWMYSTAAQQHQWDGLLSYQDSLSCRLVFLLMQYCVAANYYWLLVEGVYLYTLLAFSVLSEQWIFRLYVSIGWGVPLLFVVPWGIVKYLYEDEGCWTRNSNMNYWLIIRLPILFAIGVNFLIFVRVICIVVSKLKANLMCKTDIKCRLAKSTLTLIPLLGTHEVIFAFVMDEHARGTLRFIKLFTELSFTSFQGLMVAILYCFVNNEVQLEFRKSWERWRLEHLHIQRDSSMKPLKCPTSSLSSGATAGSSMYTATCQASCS

Structure (SMILES)	Inhibition of P5-induced increase in [Ca2+]i [1]	Ligand bias (in words) [2]	Bias factor (β), Gq vs β-arrestin 1 ([2]; mean ± s.d.)	Bias factor (β), Gq vs β-arrestin 2 ([2]; mean ± s.d.)	Bias factor (β), Gs vs β-arrestin 2 ([2]; mean ± s.d.)	Bias factor (β), Gs vs β-arrestin 1 ([2]; mean ± s.d. of a typical experiment performed three times)
C=C1C(=O)N[C@@H](C)C(=O)N(C)[C@@H](C)C(=O)N[C@@H]([C@H](OC(=O)[C@@H](NC(=O)CC)[C@H](O)C(C)C)C(C)C)C(=O)N(C)[C@@H]([C@@H](C)OC)C(=O)O[C@H](C(C)C)[C@H](NC(C)=O)C(=O)O[C@H](Cc2ccccc2)C(=O)N1C [FR900359] (Ac-[X1][dPhLac][NMeDha]A[NMeA][X1](Leu(3R-OH,Nα-propionyl))[NMeT](Me); ester 1-C)	inhibited					
CC[C@H](C)[C@H](NC(=O)[C@H](Cc1ccccc1)NC(=O)[C@H](CCC(=O)O)NC(=O)[C@H](CCCCN)NC(=O)[C@H](C)NC(=O)[C@H](C)NC(=O)[C@H](CCC(N)=O)NC(=O)CNC(=O)[C@H](CCC(=O)O)NC(=O)[C@H](CC(C)C)NC(=O)[C@H](Cc1ccc(O)cc1)NC(=O)[C@H](CO)NC(=O)[C@H](CO)NC(=O)[C@@H](NC(=O)[C@H](CC(=O)O)NC(=O)[C@H](CO)NC(=O)[C@@H](NC(=O)[C@H](Cc1ccccc1)NC(=O)[C@@H](NC(=O)CNC(=O)[C@H](CCC(=O)O)NC(=O)[C@H](C)NC(=O)[C@@H](N)Cc1c[nH]cn1)[C@@H](C)O)[C@@H](C)O)C(C)C)C(=O)N[C@@H](C)C(=O)N[C@@H](Cc1c[nH]c2ccccc12)C(=O)N[C@@H](CC(C)C)C(=O)N[C@H](C(=O)N[C@@H](CCCCN)C(=O)NCC(=O)N[C@@H](CCCNC(=N)N)C(N)=O)C(C)C [GLP-1, glucagon-like peptide-1]		did not demonstrate detectable bias	0.16 ± 0.13	0.2 ± 0.08	-0.04 ± 0.11	-0.08 ± 0.11
